Measured values as given in patent publication US12510533B2, “Methods for treating multiple myeloma and the use of companion biomarkers for 4-(4-(4-(((2-(2,6-dioxopiperidin-3-yl)-1-oxoisoindolin-4-yl)oxy)methyl)benzyl)piperazin-1-yl)-3-fluorobenzonitrile” (Celgene Corporation, priority 2018, dated 2025).
Like-named read-outs stand apart in the source and are kept apart here.

Key:
Aiolos = target: T1, Aiolos (Homo sapiens, UniProt Q96SW2+Q9UKT9); test: Aiolos degradation, ePL luminescence assay in DF15 cells expressing ePL-tagged Aiolos; format: cell-based; conditions: for DC50: read-out: Degradation of Aiolos IC50, DF15 cells
T1 construct: expressed in transfected cells; host or cells: DF15 multiple myeloma cells
T1 sequence (Q9UKT9 whole entry): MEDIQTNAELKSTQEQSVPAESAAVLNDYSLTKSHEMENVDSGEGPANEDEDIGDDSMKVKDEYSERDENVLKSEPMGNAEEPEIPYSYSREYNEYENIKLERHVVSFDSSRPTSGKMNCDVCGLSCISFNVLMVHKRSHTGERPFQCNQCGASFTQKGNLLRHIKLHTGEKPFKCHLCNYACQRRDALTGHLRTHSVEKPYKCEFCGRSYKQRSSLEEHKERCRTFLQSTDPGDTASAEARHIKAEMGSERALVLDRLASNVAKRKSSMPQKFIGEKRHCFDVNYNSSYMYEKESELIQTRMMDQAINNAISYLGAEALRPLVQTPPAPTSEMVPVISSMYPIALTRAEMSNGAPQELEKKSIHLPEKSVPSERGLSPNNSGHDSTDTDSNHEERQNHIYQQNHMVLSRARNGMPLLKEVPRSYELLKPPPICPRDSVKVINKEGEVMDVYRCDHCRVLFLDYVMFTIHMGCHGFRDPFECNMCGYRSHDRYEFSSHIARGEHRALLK
T1 sequence (Q96SW2 whole entry): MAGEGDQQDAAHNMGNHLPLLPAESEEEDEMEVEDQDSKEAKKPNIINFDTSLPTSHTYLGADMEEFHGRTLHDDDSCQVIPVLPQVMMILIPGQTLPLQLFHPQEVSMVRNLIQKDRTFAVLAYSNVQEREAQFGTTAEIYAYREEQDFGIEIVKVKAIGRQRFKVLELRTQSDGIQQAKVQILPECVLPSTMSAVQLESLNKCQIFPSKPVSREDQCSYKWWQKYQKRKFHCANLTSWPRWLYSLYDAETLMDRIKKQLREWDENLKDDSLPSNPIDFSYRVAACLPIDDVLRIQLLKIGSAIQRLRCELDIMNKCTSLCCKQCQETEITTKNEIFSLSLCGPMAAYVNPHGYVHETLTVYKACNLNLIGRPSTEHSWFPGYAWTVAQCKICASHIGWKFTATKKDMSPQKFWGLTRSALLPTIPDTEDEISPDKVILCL
T1 sequence (Q16531 2-1140, further chain): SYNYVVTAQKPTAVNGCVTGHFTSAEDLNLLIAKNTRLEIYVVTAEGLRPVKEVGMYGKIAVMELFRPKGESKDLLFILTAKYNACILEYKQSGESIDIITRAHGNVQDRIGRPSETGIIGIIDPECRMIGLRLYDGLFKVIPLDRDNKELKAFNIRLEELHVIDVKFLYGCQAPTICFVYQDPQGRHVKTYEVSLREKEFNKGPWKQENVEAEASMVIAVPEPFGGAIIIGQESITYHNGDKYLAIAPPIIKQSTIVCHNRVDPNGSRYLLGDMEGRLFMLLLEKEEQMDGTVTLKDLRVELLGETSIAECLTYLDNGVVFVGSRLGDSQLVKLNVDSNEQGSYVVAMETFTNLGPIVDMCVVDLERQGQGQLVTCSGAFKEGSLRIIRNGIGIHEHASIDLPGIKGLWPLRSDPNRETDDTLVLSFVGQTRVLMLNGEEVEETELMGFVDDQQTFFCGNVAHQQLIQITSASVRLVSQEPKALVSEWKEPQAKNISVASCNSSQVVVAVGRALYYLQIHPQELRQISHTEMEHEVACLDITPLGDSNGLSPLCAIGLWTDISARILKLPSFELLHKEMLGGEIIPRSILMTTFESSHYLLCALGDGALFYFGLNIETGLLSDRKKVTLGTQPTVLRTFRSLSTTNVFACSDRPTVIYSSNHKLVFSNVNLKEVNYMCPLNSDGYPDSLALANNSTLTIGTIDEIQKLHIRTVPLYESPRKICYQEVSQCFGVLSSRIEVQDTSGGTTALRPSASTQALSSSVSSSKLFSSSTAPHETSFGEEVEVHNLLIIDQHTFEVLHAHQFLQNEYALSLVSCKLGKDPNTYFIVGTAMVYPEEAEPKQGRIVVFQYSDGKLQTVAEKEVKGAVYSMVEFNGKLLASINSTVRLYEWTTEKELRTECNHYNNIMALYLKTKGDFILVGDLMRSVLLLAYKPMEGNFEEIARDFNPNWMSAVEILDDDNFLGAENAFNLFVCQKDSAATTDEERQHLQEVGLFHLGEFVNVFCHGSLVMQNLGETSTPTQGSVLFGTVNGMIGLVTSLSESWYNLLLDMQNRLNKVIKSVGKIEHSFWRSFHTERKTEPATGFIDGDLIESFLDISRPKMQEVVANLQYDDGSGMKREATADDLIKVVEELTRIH
Description: FIG. 1 illustrates that Compound 2 and Compound 3 degraded Aiolos protein in a time and concentration dependent manner. DF15 cells expressing Enhanced ProLabel (ePL)-tagged Aiolos were incubated with Compound 2 (triangle) or Compound 3 (square) for 45 minutes, 90 minutes, or 3 hours at the indicated concentrations. Cell extracts were then generated and the amount of Aiolos-ePL protein was determined by ePL luminescence assay.
The relative effectiveness of Compound 2 and Compound 3 to promote the destruction of Aiolos protein by the CRL4^CRBN E3 ubiquitin ligase was investigated in DF15 myeloma cells at different time points (45 minutes, 90 minutes, and 3 hours). DF15 cells expressing Enhanced ProLabel (ePL)-tagged Aiolos were incubated with Compound 2 or Compound 3 for 45 minutes, 90 minutes, or 3 hours. Cell extracts were then generated and the amount of Aiolos ePL protein was determined by ePL luminescence assay. Values shown in Table 1 correspond to data presented in FIG. 1 for Aiolos content vs. concentration.

OPM2 cells = test: cells; format: cell-based, human; conditions: Homo sapiens, read-out: Inhibition of Proliferation of OPM2 Cells IC50
Description: The effect of the stabilizing mutations on cell proliferation was also measured.

SMILES	manner of Aiolos degradation (Aiolos; 45 minutes, 90 minutes, 3 hours)	inhibition at 0.001 µM (Aiolos; DF15, read-out: inhibition at 0.001 μM) [%]	DC50 (Aiolos; 45 minutes incubation) [nM]	DC50 (Aiolos; 90 minutes incubation) [nM]	DC50 (Aiolos; 3 hours incubation) [nM]	IC50 (OPM2 cells; OPM-2, Parental) [nM]	IC50 (OPM2 cells; OPM-2, overexpressing Aiolos Q147H) [nM]	IC50 (OPM2 cells; OPM-2, overexpressing Aiolos) [nM]	IC50 (OPM2 cells; OPM-2, overexpressing Ikaros-G151A) [nM]	IC50 (OPM2 cells; OPM-2, overexpressing Ikaros-Q146H) [nM]	IC50 (OPM2 cells; OPM-2, overexpressing Ikaros) [nM]	IC50 (OPM2 cells; OPM-2, overexpressing ZFP91-Q400H) [nM]
N#Cc1ccc(N2CCN(Cc3ccc(COc4cccc5c4CN([C@@H]4CCC(=O)NC4=O)C5=O)cc3)CC2)c(F)c1 [Compound 3, (R)-4-(4-(4-(((2-(2,6-dioxopiperidin-3-yl)-1-oxoisoindolin-4-yl)oxy)methyl)benzyl)piperazin-1-yl)-3-fluorobenzonitrile]	time-dependent and concentration-dependent	13	> 100	5.9	0.45	–	–	–	–	–	–	–
Nc1cccc2c1C(=O)N(C1CCC(=O)NC1=O)C2=O (stereo not drawn) [Pomalidomide, pomalidomide, reference compound]	–	–	–	–	–	64	56	89	> 100	> 100	91	73
